The record followed here is patent US20260085034A1, “N-(BENZHYDRYL)CYCLOALKYLCARBOXAMIDE DERIVATIVES AS INHIBITORS OF GLYCOGEN SYNTHASE 1 (GYS1) AND METHODS OF USE THEREOF” (Maze Therapeutics, Inc., priority 2022, published 2026).

Assay [1] addresses T1, recombinant hGYS1/GN1 protein (Homo sapiens, UniProt P13807).
T1 sequence (P13807 1-737): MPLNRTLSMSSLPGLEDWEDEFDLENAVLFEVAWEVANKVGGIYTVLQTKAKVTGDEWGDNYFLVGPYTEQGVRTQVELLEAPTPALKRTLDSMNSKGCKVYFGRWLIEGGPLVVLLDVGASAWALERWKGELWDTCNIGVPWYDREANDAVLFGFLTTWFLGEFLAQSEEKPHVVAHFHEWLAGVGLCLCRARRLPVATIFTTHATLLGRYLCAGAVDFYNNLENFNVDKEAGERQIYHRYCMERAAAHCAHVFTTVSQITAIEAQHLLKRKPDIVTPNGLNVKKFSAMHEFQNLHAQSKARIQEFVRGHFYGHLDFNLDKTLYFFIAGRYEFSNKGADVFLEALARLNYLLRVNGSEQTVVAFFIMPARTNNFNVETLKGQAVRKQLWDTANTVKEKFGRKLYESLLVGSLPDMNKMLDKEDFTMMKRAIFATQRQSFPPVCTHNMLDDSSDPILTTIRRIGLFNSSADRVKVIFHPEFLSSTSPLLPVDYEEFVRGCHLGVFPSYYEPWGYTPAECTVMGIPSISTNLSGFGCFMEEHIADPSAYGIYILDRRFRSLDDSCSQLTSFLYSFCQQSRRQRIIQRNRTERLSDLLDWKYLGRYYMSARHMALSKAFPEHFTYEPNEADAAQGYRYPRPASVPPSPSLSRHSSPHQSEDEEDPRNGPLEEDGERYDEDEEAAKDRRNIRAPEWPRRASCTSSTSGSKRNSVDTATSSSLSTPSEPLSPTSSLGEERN
T1 sequence (P46976 1-350 partner): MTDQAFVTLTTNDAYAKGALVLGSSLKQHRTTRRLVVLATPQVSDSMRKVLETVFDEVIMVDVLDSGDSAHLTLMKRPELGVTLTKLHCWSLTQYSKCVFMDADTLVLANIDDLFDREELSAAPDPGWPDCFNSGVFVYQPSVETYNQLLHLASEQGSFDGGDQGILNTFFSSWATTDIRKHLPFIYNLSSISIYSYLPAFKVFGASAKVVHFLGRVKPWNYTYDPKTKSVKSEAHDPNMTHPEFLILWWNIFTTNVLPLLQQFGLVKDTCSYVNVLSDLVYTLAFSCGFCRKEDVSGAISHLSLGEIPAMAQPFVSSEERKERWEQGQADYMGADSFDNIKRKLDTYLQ
The experiment in a line: GYS1 coupled enzyme assay (PK/LDH). The class given is biochemical. The following applies: geometric mean of at least 2 assay runs; NADH absorbance at 340 nm. Summed up: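 Recombinant hGYS1/GN1 (50 nM) with 0.8 mM UDP-glucose, 0.2% glycogen and 1 mM glucose-6-phosphate in Tris pH 7.5, 2.5% DMSO. UDP formation coupled via PK/LDH to NADH oxidation, read at 340 nm over 10 min. Control-normalized slopes fit to Hill equation; IC50 as geometric mean of ≥2 runs.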

Assay [2] deals with glycogen synthesis in HeLa cells (hGYS1). The experiment in a line: GYS1 cell based assay (glycogen digestion, Glucose-glo). The following applies: Homo sapiens, 24 h incubation, 20 mM glucose, geometric mean of at least 2 runs, read-out: Cellular IC50. The source says:
The GYS1 cell based assay is a bioluminescent assay that quantifies the glucose resulting from glycogen digestion; the quantified glucose is an indirect measure of GYS1 glycogen synthesis. Newly synthesized glycogen is digested using Glucoamylase; the resulting glucose is quantified by using the Glucose-glo assay kit from Promega. Glucose-glo works by coupling glucose oxidation and NADH production with a bioluminescent system that is activated with NADH. Glucose is oxidized by Glucose dehydrogenase and the reaction reduces NAD+ to NADH; NADH activates Reductase which reduces a pro-luciferin Reductase Substrate to luciferin. Luciferin is detected in a luciferase reaction using Ultra-Glo rLuciferase and ATP, and the luminesce produced is proportional to the glucose in the sample. The luminescence is measured as a single point read in a plate reader.
Compounds that inhibit the hGYS1 enzyme and, subsequently, the glycogen synthesis in cells, were tested using assay ready plates (white, clear bottom 384 well plates) in a final DMSO reaction volume of 1% DMSO. Compounds in the assay ready plates were mixed with media with no additives, except for 20 mM glucose prior to cell addition. HeLa cells were starved in media with no additives, except for 1× Glutamax for 24 h. Starved HeLa cells were plated, in a 1:1 ratio to the media in the assay ready plate and incubated for 24 h at 37° C. and 5% CO2. Cells were washed in 1×PBS buffer and lysed in lysis buffer containing 50% 1×PBS and 25% 0.3 N HCl of the final volume in the well or reaction volume; cells were incubated with lysis buffer for 10 minutes and quenched with the remaining 25% of the reaction volume that consisted of 450 mM Tris pH 8.0. Lysates were mixed in a 1:1 ratio with Glucoamylase in 100 mM Sodium Acetate buffer, pH 5.3; the mixture was incubated for 1 h at 37° C. The digested lysate was mixed in a 1:1 ratio with Glucose-glo detection mixture as per vendor recommendations (Luciferase detection buffer, Reductase, Reductase substrate, Glucose dehydrogenase, and NAD) in read-out plates (solid white 384-well plates) and incubated for 1 h at RT. The plates were read using a plate reader with luminescence capabilities. Each compound concentration Relative Luminescence Unit (RLU) was averaged and normalized to the average RLU of the positive and negative controls to obtain a percentage inhibition. The normalized data vs. concentration was plotted; to determine the half-maximal concentration (IC50), the Levenberg-Marquardt algorithm was used to fit a Hill equation to the dose response data.
The results are shown in Table 4 below, which reports the IC50 of each compound. Unless otherwise specified, IC50 values are reported as the geometric mean of at least 2 assay runs on separate days. As shown in the table below, the compounds of the present invention are potent inhibitors of human GYS1. […] Each run represents the average of a technical replicate, where each compound was assayed twice in the same plate.

As usually defined, the IC50 is the concentration at which inhibition is half-maximal.

With `CC(C)c1ccc([C@@H](NC(=O)[C@H]2C[C@@H]2F)c2ccc3cn[nH]c3c2)nc1F` (single isomer, unassigned) [compound 3], the IC50 was 0.055 µM in assay [1] and 1.51 µM in assay [2].

Regarding `CC(C)c1ccc([C@@H](NC(=O)[C@H]2C[C@@H]2F)c2cccc(-c3ccn[nH]3)c2)nc1F` (single isomer, unassigned) [compound 4], the figures for the IC50 in assay [1] and in assay [2] were 0.156 µM and 2.79 µM, respectively.

As to `CC(C)c1ccc([C@@H](NC(=O)[C@H]2C[C@@H]2F)c2cccc3[nH]c(=O)[nH]c23)cc1F` (single isomer, unassigned) [compound 5], the IC50 in assay [1] is 0.131 µM; in assay [2] it was 1.06 µM.

`O=C(N[C@@H](c1ccccc1)c1ccc(C2CC2)c(F)n1)[C@H]1C[C@@H]1F` [compound 2, (1R,2S)-N-((S)-(5-cyclopropyl-6-fluoropyridin-2-yl)(phenyl)methyl)-2-fluorocyclopropane-1-carboxamide]: the figures for the IC50 in assay [1] and in assay [2] were 1.14 µM and 6.52 µM, respectively.
